Target: PIK3CG (human) (UniProt P48736)
Experiment: Assessment of PIK3CG Kinase Activity

Sequence of PIK3CG (human) (P48736 whole entry, looked up): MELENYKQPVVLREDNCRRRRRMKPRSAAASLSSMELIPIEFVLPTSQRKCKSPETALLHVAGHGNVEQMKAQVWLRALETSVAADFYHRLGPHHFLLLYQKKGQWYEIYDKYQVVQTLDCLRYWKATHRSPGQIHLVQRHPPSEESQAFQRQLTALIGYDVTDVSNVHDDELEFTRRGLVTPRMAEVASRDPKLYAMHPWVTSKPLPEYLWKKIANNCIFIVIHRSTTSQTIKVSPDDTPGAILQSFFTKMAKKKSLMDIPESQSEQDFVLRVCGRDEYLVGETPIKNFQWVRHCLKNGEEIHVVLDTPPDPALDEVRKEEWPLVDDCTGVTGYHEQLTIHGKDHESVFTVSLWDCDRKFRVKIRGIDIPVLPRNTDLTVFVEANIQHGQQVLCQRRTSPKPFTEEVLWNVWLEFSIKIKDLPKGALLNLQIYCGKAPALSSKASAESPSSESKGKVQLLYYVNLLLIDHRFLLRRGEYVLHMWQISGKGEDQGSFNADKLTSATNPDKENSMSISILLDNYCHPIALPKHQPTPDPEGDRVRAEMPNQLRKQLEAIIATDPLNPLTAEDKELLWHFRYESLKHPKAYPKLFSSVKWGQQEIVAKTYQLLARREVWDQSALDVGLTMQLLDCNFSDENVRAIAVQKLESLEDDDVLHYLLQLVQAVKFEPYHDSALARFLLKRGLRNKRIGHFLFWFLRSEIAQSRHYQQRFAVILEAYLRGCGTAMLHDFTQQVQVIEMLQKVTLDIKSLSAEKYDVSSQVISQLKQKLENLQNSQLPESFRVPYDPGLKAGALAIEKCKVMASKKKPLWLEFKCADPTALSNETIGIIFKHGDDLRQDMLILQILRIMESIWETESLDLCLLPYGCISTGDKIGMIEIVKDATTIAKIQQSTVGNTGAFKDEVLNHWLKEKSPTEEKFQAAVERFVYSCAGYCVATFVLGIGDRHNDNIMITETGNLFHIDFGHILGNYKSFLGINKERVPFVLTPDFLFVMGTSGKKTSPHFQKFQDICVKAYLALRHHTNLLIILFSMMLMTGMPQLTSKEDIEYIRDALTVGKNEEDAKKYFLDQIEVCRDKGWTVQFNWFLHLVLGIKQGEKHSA

IC50, < 800 nM:
CC(=O)Nc1nc2c(s1)-c1c(cnn1-c1ccc(C(=O)N[C@@H](Cc3cc4ccccc4[nH]3)C(N)=O)cc1Cl)CC2
CC(=O)Nc1nc2c(s1)-c1c(c(-c3cccnc3)nn1-c1ccccc1Cl)CC2
CC(=O)Nc1nc2c(s1)-c1c(cnn1-c1ccccc1Br)CC2
CC(=O)Nc1nc2c(s1)-c1c(cnn1-c1ccc(C(=O)N[C@H](CCCCN)C(N)=O)cc1Cl)CC2
CC=Cn1ncc2c1-c1sc(NC(C)=O)nc1CC2
CC(=O)Nc1nc2c(s1)-c1c(cnn1-c1ccc(C(=O)Nc3ccc(N4CCN(C)CC4)cc3)cc1Cl)CC2
CCN(CCO)C(=O)c1nn(-c2ccccc2)c2c1CCc1nc(NC(C)=O)sc1-2
CC(=O)Nc1nc2c(s1)-c1c(c([C@H]3CCCO3)nn1-c1ccc(C(=O)NCc3ccncc3)cc1Cl)CC2
CC(=O)Nc1nc2c(s1)-c1c(cnn1-c1ccccc1)C2
CC(=O)Nc1nc2c(s1)-c1c(cnn1-c1ccc(S(=O)(=O)N3CCN(C)CC3)cc1)CC2
CC(=O)Nc1nc2c(s1)-c1c(cnn1-c1ccc(C(=O)NCCC(=O)O)cc1)CC2
CNC(=O)Nc1nc2c(s1)-c1nc(-c3ccccc3)ncc1CC2
CC(=O)Nc1nc2c(s1)-c1c(cnn1-c1ccc(C(=O)N3CCCC(=O)CC3)cc1)CC2
CN(C)CCNC(=O)Nc1nc2c(s1)-c1c(cnn1-c1ccccc1)CC2
CC(=O)Nc1nc2c(s1)-c1nc(-c3ccccc3Cl)ncc1CC2
CC(=O)Nc1nc2c(s1)-c1c(cnn1-c1ccc(C(=O)N[C@@H](CCCNC(=N)N)C(N)=O)cc1Cl)CC2
CC(=O)Nc1nc2c(s1)-c1c(c(-c3cn(C)cn3)nn1-c1ccccc1Cl)CC2
CC(=O)Nc1nc2c(s1)-c1c(cnn1-c1ccc(C(=O)N3CCC(CO)CC3)cc1)CC2
CC(=O)Nc1nc2c(s1)-c1c(cnn1-c1ccc(C(=O)N(C)Cc3ccccc3)cc1)CC2
CC(=O)Nc1nc2c(s1)-c1c(cnn1-c1ccc(C(=O)N3CCCC(O)C3)cc1)CC2 (centres undefined)
COC(=O)c1nn(-c2ccccc2C(F)(F)F)c2c1CCc1nc(NC(C)=O)sc1-2
COC(=O)c1nn(-c2ccccc2F)c2c1CCc1nc(NC(C)=O)sc1-2
CC(=O)Nc1nc2c(s1)-c1c(cnn1-c1ccc(CC(=O)NCCCN3CCOCC3)cc1)CC2
CC(=O)Nc1nc2c(s1)-c1c(cnn1-c1ccc(CC(=O)NCCC3CCCN3C)cc1)CC2 (centres undefined)
CC(=O)Nc1nc2c(s1)-c1c(cnn1-c1ccc(C(=O)NCCCn3ccnc3)cc1)CC2
CC(=O)Nc1nc2c(s1)-c1c(cnn1-c1ccc(C(=O)N[C@@H](CCc3ccccc3)C(N)=O)cc1Cl)CC2
COC(=O)Nc1nc2c(s1)-c1c(cnn1-c1ccccc1)CC2
CC(=O)Nc1nc2c(s1)-c1nc(-c3ccccc3)ncc1CC2
CC(=O)Nc1nc2c(s1)-c1nc(N(C)CCN3CCN(C)CC3)ncc1CC2
NC(=O)Nc1nc2c(s1)-c1c(cnn1-c1ccccc1)CC2
CC(=O)Nc1nc2c(s1)-c1nc(COc3ccccc3Cl)ncc1CC2
NC(=O)Nc1nc2c(s1)-c1nc(-c3ccccc3)ncc1CC2
CC(=O)Nc1nc2c(s1)-c1c(cnn1-c1ccc(C(=O)N3CCN(CCO)CC3)cc1)CC2
CC(=O)Nc1nc2c(s1)-c1c(cnn1-c1ccc(C(=O)NCc3ccccn3)cc1)CC2
CC(=O)Nc1nc2c(s1)-c1c(cnn1C(=O)c1ccccc1Cl)CC2
CC(=O)Nc1nc2c(s1)-c1c(cnn1-c1ccccc1)CC2
CC(=O)Nc1nc2c(s1)-c1c(c(C(=O)O)nn1-c1ccccc1)CC2
CN(C)CCCC(=O)Nc1nc2c(s1)-c1c(c(-c3ccccc3)nn1-c1ccccc1Cl)CC2
CC(=O)Nc1nc2c(s1)-c1nc(-c3ccccc3)ncc1C2
COCc1nn(-c2ccccc2C(F)(F)F)c2c1CCc1nc(NC(C)=O)sc1-2
CC(=O)Nc1nc2c(s1)-c1c(cnn1-c1ccc(CC(=O)NCC#Cc3ccncc3)cc1)CC2
CC(=O)Nc1nc2c(s1)-c1c(c(-c3ccccn3)nn1-c1ccccc1C)CC2
O=CNc1nc2c(s1)-c1c(cnn1-c1ccccc1)CC2
CC(=O)Nc1nc2c(s1)-c1nc(-n3cccn3)ncc1CC2
CC(=O)Nc1nc2c(s1)-c1c(cnn1-c1ccccc1Cl)CC2
CC(=O)Nc1nc2c(s1)-c1c(cnn1-c1cc(S(N)(=O)=O)ccc1Cl)CC2
CC(=O)Nc1nc2c(s1)-c1c(cnn1-c1ccc(C(=O)N(C)Cc3cnn(C)c3)cc1)CC2
COc1ccccc1-n1nc(-c2ccccc2)c2c1-c1sc(NC(C)=O)nc1CC2
CC(=O)Nc1nc2c(s1)-c1c(cnn1-c1ccc(C(=O)NCc3cccc(N4CCNC4=O)c3)cc1)CC2
Nc1nc2c(s1)-c1c(cnn1-c1ccccc1)C2
COc1ccccc1-n1ncc2c1-c1sc(NC(C)=O)nc1C2
CC(=O)Nc1nc2c(s1)-c1c(cnn1-c1ccc(C(=O)N3CCC(N4CCNC4=O)CC3)cc1)CC2
CC(=O)Nc1nc2c(s1)-c1nc(C(C)(C)C)ncc1CC2
CC(=O)Nc1nc2c(s1)-c1c(cnn1-c1cccc(C(=O)O)c1)CC2
CC(=O)Nc1nc2c(s1)-c1c(c(-c3ccccc3)nn1-c1ccccc1C(F)(F)F)CC2
O=C(Nc1nc2c(s1)-c1nc(-c3ccccc3)ncc1CC2)N1CCOCC1
COc1ccc(-n2ncc3c2-c2sc(NC(C)=O)nc2C3)cc1
CC(=O)Nc1nc2c(s1)-c1c(c(N)nn1-c1ccccc1Cl)CC2
CC(=O)Nc1nc2c(s1)-c1c(cnn1-c1ccc(CC(=O)NC3CCS(=O)(=O)C3)cc1)CC2 (centres undefined)
CCOC(=O)c1n[nH]c2c1CCc1nc(NC(C)=O)sc1-2
CC(=O)Nc1nc2c(s1)-c1c(cnn1-c1ccc(S(C)(=O)=O)cc1)CC2
CC(=O)Nc1nc2c(s1)-c1c(cnn1-c1ccc(C(=O)N3CCC(O)CC3)cc1)CC2
CC(=O)Nc1nc2c(s1)-c1c(cnn1-c1cccc(C(F)(F)F)c1)CC2
CNC(=O)Nc1nn(-c2ccccc2Cl)c2c1CCc1nc(NC(C)=O)sc1-2
CCN1CCCC(NC(=O)c2ccc(-n3ncc4c3-c3sc(NC(C)=O)nc3CC4)cc2)C1 (centres undefined)
CC(=O)Nc1nc2c(s1)-c1c(cnn1-c1ccc(CC(=O)Nc3cc(O)[nH]n3)cc1)CC2
CC(=O)Nc1nc2c(s1)-c1c(c(NC(=O)OC(C)C)nn1-c1ccccc1Cl)CC2
CC(=O)Nc1nc2c(s1)-c1c(cnn1-c1ccc(C(=O)N[C@H]3CCc4nc(N)sc4C3)cc1Cl)CC2
CC(=O)Nc1nc2c(s1)-c1c(cnn1-c1ccc(C(=O)N(C)CCO)cc1)CC2
CC(=O)Nc1nc2c(s1)-c1c(cnn1-c1ccc(C(=O)N3CCC4(CCN(C)C4)C3)cc1)CC2 (centres undefined)
CC(=O)Nc1nc2c(s1)-c1c(cnn1-c1ccc(C(=O)N[C@H]3CC[C@H](N4CCN(S(C)(=O)=O)CC4)CC3)cc1)CC2
CC(=O)Nc1nc2c(s1)-c1c(cnn1-c1ccccc1C)C2
CC(=O)Nc1nc2c(s1)-c1c(cnn1-c1ccc(C)cc1)C2
CC(=O)Nc1nc2c(s1)-c1c(cnn1-c1ccccc1F)CC2
CC(=O)Nc1nc2c(s1)-c1c(c(C(=O)N(C)C)nn1-c1ccccc1Cl)CC2
COc1ccccc1-n1ncc2c1-c1sc(NC(C)=O)nc1CC2
CC(=O)Nc1nc2c(s1)-c1nn(-c3ccc(C(=O)N[C@H]4CC[C@H](N5CCCC5)CC4)cc3)c(-c3ccco3)c1CC2
CC(=O)Nc1nc2c(s1)-c1c(cnn1-c1ccc(CC(=O)N3CCN(C(C)=O)CC3)cc1)CC2
CC(=O)Nc1nc2c(s1)-c1c(cnn1-c1ccc(F)cc1)CC2
CC(=O)Nc1nc2c(s1)-c1c(cnn1-c1ccc(C(=O)NCc3nc4ccccc4n3C)cc1)CC2
CC(=O)Nc1nc2c(s1)-c1c(cnn1-c1ccc(C)cc1)CC2
NCC(=O)Nc1nc2c(s1)-c1c(cnn1-c1ccccc1)CC2
CC(=O)Nc1nc2c(s1)-c1c(cnn1-c1ccc(Cl)cc1Cl)CC2
CC(=O)Nc1nc2c(s1)-c1c(c(C(=O)N(C)CCO)nn1-c1ccccc1)CC2
CC(=O)Nc1nc2c(s1)-c1c(cnn1-c1ccc(C(=O)N3CCC(N)CC3)cc1)CC2
CC(=O)Nc1nc2c(s1)-c1nc(N3CCOCC3)ncc1C2
CN(C)CCNC(=O)Nc1nc2c(s1)-c1c(cnn1-c1ccccc1Cl)C2
CC(=O)Nc1nc2c(s1)-c1c(c(-c3ccco3)nn1-c1ccccc1C(F)(F)F)CC2
CC(=O)Nc1nc2c(s1)-c1c(cnn1-c1ccc(C(=O)N[C@H](C(N)=O)c3ccccc3)cc1Cl)CC2

Source: the Kinase Knowledgebase extract (Sharma et al. 2016)
